Literature values, collected in patent US20040002079A1.

Details: steady state, red cells vs plasma, different individuals

For `[Li]` [lithium, Lithium], the “lithium ratio [Li]cell/[Li]pl” value is given as 0.2 to 0.8.
